Reference: patent publication EP0604983B1, “Naphthalene derivatives” (Mitsubishi Chemical Corporation, priority 1992, dated 1994)
Marks after values point to notes of the source that are not given here.

Tested on: KK-Ay male mice
Assay: Blood sugar and blood triglyceride (TG) lowering test in KK-Ay mice, test compound mixed with powder food
Type: in vivo
From the text: The effect of the compound of the present invention on reducing blood sugar and blood lipid levels based on the ability of improving insulin resistance has been determined by the following test.
KK-Ay male mice of five to six week age were obtained from Nihon CREA. The mice have been bred with a powder feed (MF powders for breeding rats and mice, Oriental Yeast Co.) from 7 days prior to the test. The mice of nine to eighteen week age having body weights of 35 g or more were used for the test.
The blood sugar values were measured by withdrawing blood (20 µl) from animal's tail vein using a heparin-treated capillary, centrifuging the blood to obtain plasma, and measuring the glucose level in the plasma by the glucose-oxidase method. The triglyceride (TG) levels in plasma were measured by the glycerol enzyme method. Five mice in a group having 200 mg/dl or more of the blood sugar level were used for one test.
The test compounds were mixed with powder food such that the average dosage of the former is 10 - 100 mg/kg/day, and the mixture was administered to the mice for four days. Blood was withdrawn from the animal's tail vein before administration, and five days after administration, and blood sugar and TG levels were measured using the methods mentioned above. The amount of the food ingested was measured every day during the test period, and the average of the amounts for four days was calculated.
The ability of reducing blood sugar level was determined as described below. Namely, the means of the blood sugar values at the time before administration of the test compound in a control group (a group to which the test compound was not administered) and an administration group (a group to which the test compound was administered) (such values are referred to as Mcon and Mad, respectively) and the means of the blood sugar values of the control group and the administration group on 5th day after administration (such values are referred to as Con and Ad, respectively) were determined. The blood sugar lowering effect found in the administration group was expressed by the following formula. Blood sugar lowering effect(%) = 1-(Ad/Mad)/(Con/Mcon)x100 [formula]
The blood TG lowering ratio (%) was measured by the same procedure as that described above. All the values were statistically evaluated under significance level P=0.05.

[1] = KK-Ay male mice; mixed with powder food for four days; footnote a): Dose c.a. 100 mg/kg/day, plasma triglyceride (glycerol enzyme method) on 5th day vs control group
[2] = KK-Ay male mice, mixed with powder food for four days, Dose: c.a. 10 mg/kg/day, plasma triglyceride (glycerol enzyme method) on 5th day vs control group
[3] = KK-Ay male mice, dose c.a. 30 mg/kg/day (footnote a) mixed with powder food for four days, plasma triglyceride 5th day, vs control group
[4] = KK-Ay male mice, dose c.a. 50 mg/kg/day mixed with powder food for four days, plasma triglyceride 5th day, vs control group

## Cc1c(C)c2c(c(C)c1O)CCC(C)(COc1ccc(CC3SC(=O)NC3=O)cc1)O2 (stereo not drawn) [CS-045, reference compound]
[1]
  TG lowering ratio (%): -18.5%

## O=C1NC(=O)C(Cc2ccc3cc(OCc4ccccn4)ccc3c2)S1 (stereo not drawn) [Example 1, 5-[6-(2-pyridylmethyloxy)-2-naphthyl]-methyl-thiazolidine-2,4-dione]
[1]
  TG lowering ratio (%): 56.4%

## O=C1NC(=O)C(Cc2ccc3cc(OCc4ccccc4)ccc3c2)S1 (stereo not drawn) [Example 2]
[2]
  TG lowering ratio (%): 9.1* %

## O=C1NC(=O)C(Cc2ccc3cc(Oc4ccccc4)ccc3c2)S1 (stereo not drawn) [Example 3]
[1]
  TG lowering ratio (%): 31.3%

## O=C1NC(=O)C(Cc2ccc3cc(OCc4ccccc4F)ccc3c2)S1 (stereo not drawn) [Example 4, 5-[6-(2-fluorobenzyloxy)-2-naphthyl]-methyl-thiazolidine-2,4-dione]
[2]
  TG lowering ratio (%): 41.6* %

## O=C1NC(=O)C(Cc2ccc3cc(OCc4ccc(F)cc4)ccc3c2)S1 (stereo not drawn) [Example 6]
[2]
  TG lowering ratio (%): 37.7* %

## O=C1NC(=O)C(Cc2ccc3cc(OCc4ccccc4Cl)ccc3c2)S1 (stereo not drawn) [Example 7]
[2]
  TG lowering ratio (%): 28.3%

## O=C1NC(=O)C(Cc2ccc3cc(OCc4ccc(Cl)cc4)ccc3c2)S1 (stereo not drawn) [Example 8]
[2]
  TG lowering ratio (%): 9.4%

## O=C1NC(=O)C(Cc2ccc3cc(OCc4ccccc4C(F)(F)F)ccc3c2)S1 (stereo not drawn) [Example 10]
[2]
  TG lowering ratio (%): 37.2%

## O=C1NC(=O)C(=Cc2ccc3cc(OCc4ccccc4)ccc3c2)S1 [Example 13, 5-(6-benzyloxy-2-naphthyl)-methylene-thiazolidine-2,4-dione]
[3]
  TG lowering ratio (%): 21.0%

## O=C1NC(=O)C(=Cc2ccc3cc(OCc4ccccc4F)ccc3c2)S1 [Example 15, 5-[6-(2-fluorobenzyloxy)-2-naphthyl]-methylene-thiazolidine-2,4-dione]
[3]
  TG lowering ratio (%): 38.8%

## CCc1ccc(CCOc2ccc(CC3SC(=O)NC3=O)cc2)nc1 (stereo not drawn) [Pioglitazone, pioglitazone, reference compound]
[2]
  TG lowering ratio (%): -4.0%

## O=C1NC(=O)C(=Cc2ccc3cc(OCCc4ccccc4)ccc3c2)S1 [compound 14]
KK-Ay male mice, dose c.a. 100 mg/kg/day (footnote b) mixed with powder food for four days, plasma triglyceride 5th day, vs control group
  TG lowering ratio (%): 19.9%

## O=C1NC(=O)C(=Cc2ccc3cc(OCc4cccc(F)c4)ccc3c2)S1 [compound 16]
[3]
  TG lowering ratio (%): 22.3%

## O=C1NC(=O)C(=Cc2ccc3cc(OCc4ccc(F)cc4)ccc3c2)S1 [compound 17]
[3]
  TG lowering ratio (%): 24.4%

## O=C1NC(=O)C(=Cc2ccc3cc(OCc4ccccc4Cl)ccc3c2)S1 [compound 18]
[4]
  TG lowering ratio (%): 53.8* %

## O=C1NC(=O)C(=Cc2ccc3cc(OCc4ccc(Cl)cc4)ccc3c2)S1 [compound 19]
[4]
  TG lowering ratio (%): 21.7%

## O=C1NC(=O)C(=Cc2ccc3cc(OCc4ccc(Br)cc4)ccc3c2)S1 [compound 21]
[4]
  TG lowering ratio (%): 14.7%

## Cc1ccccc1COc1ccc2cc(C=C3SC(=O)NC3=O)ccc2c1 [compound 22]
[4]
  TG lowering ratio (%): 9.5%

## N#Cc1ccc(COc2ccc3cc(C=C4SC(=O)NC4=O)ccc3c2)cc1 [compound 32]
[4]
  TG lowering ratio (%): 39.6* %

## O=C1NC(=O)C(=Cc2ccc3cc(OCc4ccccc4[N+](=O)[O-])ccc3c2)S1 [compound 33]
[4]
  TG lowering ratio (%): 16.0%

## O=C1NC(=O)C(=Cc2ccc3cc(OCc4ccc([N+](=O)[O-])cc4)ccc3c2)S1 [compound 35]
[4]
  TG lowering ratio (%): 56.9%

## COC(=O)c1ccc(COc2ccc3cc(C=C4SC(=O)NC4=O)ccc3c2)cc1 [compound 39]
[4]
  TG lowering ratio (%): 16.0%

## O=C1NC(=O)C(=Cc2ccc3cc(OCc4ccccc4C(F)(F)F)ccc3c2)S1 [compound 46]
[4]
  TG lowering ratio (%): 51.0** %

## O=C1NC(=O)C(=Cc2ccc3cc(OCc4ccc(C(F)(F)F)cc4)ccc3c2)S1 [compound 48]
[4]
  TG lowering ratio (%): 25.6%

## O=C1NC(=O)C(=Cc2ccc3cc(OCc4c(F)cccc4F)ccc3c2)S1 [compound 49]
[3]
  TG lowering ratio (%): 43.4*** %

## O=C1NC(=O)C(=Cc2ccc3cc(OCc4c(F)cccc4C(F)(F)F)ccc3c2)S1 [compound 50]
[3]
  TG lowering ratio (%): 27.7** %
